Assay results from publication PMC12155096 (International Journal of Molecular Sciences, 2025).
Like-named read-outs stand apart in the source and are kept apart here.

How the values were obtained:
human CYP1A2 [1] = target: T1, human CYP1A2 (Homo sapiens, UniProt P05177); details: for CYP1A2 Efficacy (in parenthesis): human
T1 sequence (P05177 1-516): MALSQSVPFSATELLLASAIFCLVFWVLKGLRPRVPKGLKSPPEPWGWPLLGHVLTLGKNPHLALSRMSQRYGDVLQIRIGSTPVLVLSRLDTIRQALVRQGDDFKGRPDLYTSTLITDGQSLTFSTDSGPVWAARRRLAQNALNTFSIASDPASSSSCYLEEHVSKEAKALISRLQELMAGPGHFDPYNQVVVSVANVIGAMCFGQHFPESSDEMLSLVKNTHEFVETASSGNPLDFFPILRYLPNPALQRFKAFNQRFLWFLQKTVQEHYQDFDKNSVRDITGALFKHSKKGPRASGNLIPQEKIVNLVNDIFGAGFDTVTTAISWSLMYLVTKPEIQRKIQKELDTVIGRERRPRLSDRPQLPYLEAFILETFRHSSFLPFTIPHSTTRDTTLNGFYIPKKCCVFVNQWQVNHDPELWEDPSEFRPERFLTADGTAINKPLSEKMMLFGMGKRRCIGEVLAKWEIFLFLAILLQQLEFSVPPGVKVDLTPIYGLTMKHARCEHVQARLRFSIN

human CYP2C9 [2] = target: T2, human CYP2C9 (Homo sapiens, UniProt P11712); experiment: biochemical; details: for IC50: CYP2C9 IC50 (half-maximal inhibitory concentration)
CYP3A4 [3] = target: T3, CYP3A4 (Homo sapiens, UniProt P08684); experiment: biochemical
human CYP2D6 [4] = target: T4, human CYP2D6 (Homo sapiens, UniProt P10635); details: for CYP2D6 Efficacy (in parenthesis): human
human CYP2C19 [5] = target: T5, human CYP2C19 (Homo sapiens, UniProt P33261); details: for CYP2C19 Efficacy (in parenthesis): human
human CYP2D6 [6] = target: T4, human CYP2D6; experiment: biochemical; details: CYP2D6 IC50 (half-maximal inhibitory concentration)
CYP3A4 [7] = target: T3, CYP3A4
human CYP2C9 [8] = target: T2, human CYP2C9; details: human
human CYP1A2 [9] = target: T1, human CYP1A2; experiment: biochemical; details: CYP1A2 IC50 (half-maximal inhibitory concentration)
[10] = target: Photinus pyralis (firefly) luciferase (Photinus pyralis, UniProt P08659); experiment: biochemical; format: biochemical
human CYP2C19 [11] = target: T5, human CYP2C19; experiment: biochemical; details: CYP2C19 IC50 (half-maximal inhibitory concentration)
[12] = CYP2C9 AC50 (half-maximal activity concentration)
[13] = CYP3A4 AC50 (half-maximal activity concentration)

T4 sequence (P10635 whole entry): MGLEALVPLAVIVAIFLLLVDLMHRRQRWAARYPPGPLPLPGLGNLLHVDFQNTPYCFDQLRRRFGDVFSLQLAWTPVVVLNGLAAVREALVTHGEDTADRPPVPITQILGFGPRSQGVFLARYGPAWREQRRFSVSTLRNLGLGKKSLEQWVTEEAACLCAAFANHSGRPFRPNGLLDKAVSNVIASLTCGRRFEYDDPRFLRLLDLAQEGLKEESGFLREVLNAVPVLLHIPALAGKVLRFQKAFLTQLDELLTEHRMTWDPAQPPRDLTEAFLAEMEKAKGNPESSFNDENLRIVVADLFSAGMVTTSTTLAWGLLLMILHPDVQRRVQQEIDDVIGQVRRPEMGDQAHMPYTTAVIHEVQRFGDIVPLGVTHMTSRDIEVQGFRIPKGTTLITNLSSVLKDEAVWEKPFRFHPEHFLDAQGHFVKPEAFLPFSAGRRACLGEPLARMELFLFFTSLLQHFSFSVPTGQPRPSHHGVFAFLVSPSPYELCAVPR
T3 sequence (P08684 whole entry): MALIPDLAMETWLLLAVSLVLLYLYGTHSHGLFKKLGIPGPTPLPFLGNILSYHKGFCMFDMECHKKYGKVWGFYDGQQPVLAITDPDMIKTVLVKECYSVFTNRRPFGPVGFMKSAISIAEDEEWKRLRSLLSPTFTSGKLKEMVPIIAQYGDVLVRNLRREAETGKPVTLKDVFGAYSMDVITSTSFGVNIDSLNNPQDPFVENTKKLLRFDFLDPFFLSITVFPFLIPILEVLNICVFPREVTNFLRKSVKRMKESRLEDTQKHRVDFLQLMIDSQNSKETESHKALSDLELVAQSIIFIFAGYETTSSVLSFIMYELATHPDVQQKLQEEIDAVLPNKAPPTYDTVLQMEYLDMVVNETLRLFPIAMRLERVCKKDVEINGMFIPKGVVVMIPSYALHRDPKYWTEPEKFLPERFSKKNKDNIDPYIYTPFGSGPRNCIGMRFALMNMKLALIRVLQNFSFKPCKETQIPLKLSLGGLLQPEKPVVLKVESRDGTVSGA
T2 sequence (P11712 whole entry): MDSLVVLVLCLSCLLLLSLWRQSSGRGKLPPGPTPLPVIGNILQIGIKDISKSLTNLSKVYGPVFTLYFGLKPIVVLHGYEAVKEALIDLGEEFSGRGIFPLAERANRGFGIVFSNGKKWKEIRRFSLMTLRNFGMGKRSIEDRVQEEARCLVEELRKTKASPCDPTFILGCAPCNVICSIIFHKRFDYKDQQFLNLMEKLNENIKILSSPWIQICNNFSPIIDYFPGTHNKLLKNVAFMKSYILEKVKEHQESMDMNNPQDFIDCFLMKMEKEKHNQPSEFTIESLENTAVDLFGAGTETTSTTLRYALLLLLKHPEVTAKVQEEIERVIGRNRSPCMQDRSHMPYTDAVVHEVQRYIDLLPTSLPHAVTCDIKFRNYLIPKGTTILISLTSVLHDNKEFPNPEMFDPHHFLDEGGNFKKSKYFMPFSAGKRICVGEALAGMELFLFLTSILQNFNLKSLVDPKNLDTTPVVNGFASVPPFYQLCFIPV
T5 sequence (P33261 whole entry): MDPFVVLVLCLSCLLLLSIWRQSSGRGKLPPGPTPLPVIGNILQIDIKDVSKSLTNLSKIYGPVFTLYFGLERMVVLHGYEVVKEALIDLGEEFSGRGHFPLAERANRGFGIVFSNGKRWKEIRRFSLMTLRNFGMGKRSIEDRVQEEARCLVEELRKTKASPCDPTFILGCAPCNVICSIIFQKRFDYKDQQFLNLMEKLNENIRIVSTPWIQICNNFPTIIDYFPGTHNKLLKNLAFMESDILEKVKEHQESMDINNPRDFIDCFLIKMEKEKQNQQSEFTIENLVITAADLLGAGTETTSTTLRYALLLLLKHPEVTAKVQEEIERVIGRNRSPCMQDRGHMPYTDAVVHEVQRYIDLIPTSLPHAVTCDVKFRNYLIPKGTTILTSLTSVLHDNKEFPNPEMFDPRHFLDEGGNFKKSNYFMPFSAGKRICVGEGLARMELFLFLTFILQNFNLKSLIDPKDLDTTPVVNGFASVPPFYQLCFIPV
Chain of Photinus pyralis (firefly) luciferase (P08659 whole entry): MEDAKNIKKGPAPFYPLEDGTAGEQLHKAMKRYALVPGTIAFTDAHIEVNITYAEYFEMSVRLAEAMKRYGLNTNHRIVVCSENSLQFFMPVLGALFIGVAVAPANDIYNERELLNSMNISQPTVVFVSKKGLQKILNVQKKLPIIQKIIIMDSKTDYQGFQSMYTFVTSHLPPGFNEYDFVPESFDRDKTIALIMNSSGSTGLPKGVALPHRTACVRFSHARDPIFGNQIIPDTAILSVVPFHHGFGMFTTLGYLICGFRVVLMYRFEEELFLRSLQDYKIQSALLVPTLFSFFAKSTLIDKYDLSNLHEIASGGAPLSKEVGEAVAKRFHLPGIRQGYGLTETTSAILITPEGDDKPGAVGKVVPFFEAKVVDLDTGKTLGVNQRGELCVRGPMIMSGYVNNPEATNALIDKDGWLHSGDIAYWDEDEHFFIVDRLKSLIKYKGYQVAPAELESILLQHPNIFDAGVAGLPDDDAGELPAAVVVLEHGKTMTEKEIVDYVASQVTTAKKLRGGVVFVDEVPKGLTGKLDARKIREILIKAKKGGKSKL

| Structure (SMILES) | CYP1A2 AC50 (half-maximal activity concentration) (human CYP1A2 [1]) | AC50 (human CYP2C9 [2]; [12]) | AC50 (CYP3A4 [3]; [13]) | CYP2D6 AC50 (half-maximal activity concentration) (human CYP2D6 [4]) | CYP2C19 AC50 (half-maximal activity concentration) (human CYP2C19 [5]) | other results |
| --- | --- | --- | --- | --- | --- | --- |
| Clc1ccccc1-c1ccccc1Cl [2,2'-Dichlorobiphenyl] | Inconclusive inhibitor | 39 µM | 14.6 µM | Inactive | Inconclusive activator |  |
| CC(Oc1cc(Cl)c(Cl)cc1Cl)C(=O)O (stereo not drawn) [2-(2,4,5-Trichlorophenoxy)propionic acid] | Inactive | 28.4 µM | 76.9 µM | Inactive | Inactive |  |
| O=C(O)c1cc(Cl)cc(Cl)c1O [3,5-Dichlorosalicylic acid] | Inconclusive inhibitor |  |  | Inactive | Inactive | AC50 (human CYP2C9 [2]): 28.3 µM; AC50 (CYP3A4 [3]): 37 µM |
| N#Cc1cc(Br)c(O)c(Br)c1 [Bromoxynil] | Inactive | 18.7 µM | 29.6 µM | Inactive | Inactive |  |
| Cc1ccc(S(=O)(=O)NCl)cc1 [Chloramine-T trihydrate] | Inconclusive inhibitor | 81.6 µM | 67.9 µM | Inactive | Inconclusive inhibitor |  |
| CC(=O)OCC(=O)[C@@]12N=C(C)O[C@@H]1C[C@H]1[C@@H]3CCC4=CC(=O)C=C[C@]4(C)[C@H]3[C@@H](O)C[C@@]12C [Deflazacort] | Inactive | 60.9 µM | 13.2 µM | Inactive | Inactive |  |
| CCC(=O)Oc1ccc(/C(CC)=C(\CC)c2ccc(OC(=O)CC)cc2)cc1 [Diethylstilbestrol dipropionate] | Inactive | 21.2 µM | 22.9 µM | Inactive | Inactive |  |
| CC(=O)OCC(=O)[C@@]1(OC(C)=O)[C@@H](C)C[C@H]2[C@@H]3C[C@H](F)C4=CC(=O)C=C[C@]4(C)[C@@]3(F)[C@@H](O)C[C@@]21C [Diflorasone diacetate] | Inactive | 19 µM | 4.74 µM | Inactive | Inconclusive activator |  |
| CC(C)COC(=O)CCCCC(=O)OCC(C)C [Diisobutyl adipate] | Inconclusive inhibitor |  |  | Inactive | Inactive | AC50 (human CYP2C9 [2]): 38 µM; AC50 (CYP3A4 [3]): 11.7 µM |
| CN(C(=O)C(Cl)Cl)c1ccc(OC(=O)c2ccco2)cc1 [Diloxanide furoate] | Inactive | 15.5 µM | 25.3 µM | Inconclusive | Inconclusive inhibitor |  |
| O=C(NC(=O)c1c(F)cccc1F)Nc1ccc(Oc2ccc(C(F)(F)F)cc2Cl)cc1F [Flufenoxuron] | Inactive | 17.8 µM | 18.6 µM | Inactive | Inconclusive |  |
| Cc1ccc(Cl)c(Nc2ccccc2C(=O)O)c1Cl [Meclofenamate sodium] | Inactive | 24.2 µM | 38.9 µM | Inconclusive inhibitor | Inactive |  |
| Cc1cccc(Nc2ccccc2C(=O)O)c1C [Mefenamic acid] | Inconclusive inhibitor | 33 µM | 73.9 µM | Inactive | Inconclusive inhibitor |  |
| C[C@]12C=CC(=O)C=C1CC[C@@H]1[C@@H]2CC[C@@]2(C)[C@H]1CC[C@]2(C)O [Methandrostenolone] | Inactive | 34.7 µM | 2.65 µM | Inactive | Inactive |  |
| O=C(O)C(F)(F)C(F)(F)C(F)(F)C(F)(F)C(F)(F)C(F)(F)F [Perfluoroheptanoic acid] | Inactive | 6.33 µM | 65.8 µM | Inactive | Inactive |  |
| O=C(O)c1ccccc1C(c1ccc(O)cc1)c1ccc(O)cc1 [Phenolphthalin] | Inconclusive inhibitor | 56.6 µM | 30.1 µM | Inactive | Inactive |  |
| C[C@@H]1O[C@@H](O[C@@H]2C=C3CC[C@@H]4[C@H](CC[C@]5(C)[C@@H](c6ccc(=O)oc6)CC[C@]45O)[C@@]3(C)CC2)[C@H](O)[C@H](O)[C@H]1O [Proscillaridin] | Inactive |  | 33.4 µM | Inactive | Inconclusive activator |  |
| Fc1ccc(Oc2ccnc3cc(Cl)cc(Cl)c23)cc1 [Quinoxyfen] |  |  |  |  |  | IC50 (human CYP2D6 [6]): 37 µM; CYP1A2 Efficacy (in parenthesis) (human CYP1A2 [1]): 0.53 ± 0.32 (-98 ± 2) %; IC50 (human CYP2C9 [2]): 23.2 µM; CYP3A4 IC50 (half-maximal inhibitory concentration) (CYP3A4 [7]): Inactive; CYP2C9 Efficacy (in parenthesis) (human CYP2C9 [8]): 23.18 ± 7.46 (-103 ± 2) %; IC50 (human CYP1A2 [9]): 0.53 µM; IC50 [10]: 59.2 µM; IC50 (human CYP2C19 [11]): 13300 nM; CYP2D6 Efficacy (in parenthesis) (human CYP2D6 [4]): 37.02 ± 2.51 (-71 ± 14) %; CYP2C19 Efficacy (in parenthesis) (human CYP2C19 [5]): 13.35 ± 5.76 (-134 ± 20) % |
| Cc1c(C(=O)NN2CCCCC2)nn(-c2ccc(Cl)cc2Cl)c1-c1ccc(Cl)cc1 [Rimonabant] | Inactive |  |  |  |  | AC50 (CYP3A4 [3]): 4.96 ± 0.93 µM |
| O=S(=O)(c1ccc(Cl)cc1)c1cc(Cl)c(Cl)cc1Cl [Tetradifon] |  |  |  |  |  | IC50 (human CYP2D6 [6]): 49.4 µM; CYP1A2 Efficacy (in parenthesis) (human CYP1A2 [1]): 31.85 ± 3.66 (-38 ± 3) %; IC50 (human CYP2C9 [2]): 28.3 µM; CYP3A4 IC50 (half-maximal inhibitory concentration) (CYP3A4 [7]): Inactive; CYP2C9 Efficacy (in parenthesis) (human CYP2C9 [8]): 28.26 ± 0 (-59 ± 2) %; IC50 (human CYP1A2 [9]): 31.9 µM; Luciferase IC50 (half-maximal inhibitory concentration) [10]: Inactive; IC50 (human CYP2C19 [11]): 270 nM; CYP2D6 Efficacy (in parenthesis) (human CYP2D6 [4]): 49.42 ± 19.58 (-34 ± 2) %; CYP2C19 Efficacy (in parenthesis) (human CYP2C19 [5]): 0.27 ± 0.02 (-131 ± 10) % |
| CC[C@H]1OC(=O)[C@H](C)[C@@H](O[C@H]2C[C@@](C)(OC)[C@@H](O)[C@H](C)O2)[C@H](C)[C@@H](O[C@@H]2O[C@H](C)C[C@H](N(C)C)[C@H]2O)[C@](C)(O)C[C@@H](C)C(=O)[C@H](C)[C@@H](O)[C@]1(C)O [erythromycin, reference compound] |  |  |  |  |  | IC50 (CYP3A4 [3]; IC50 CYP3A4 assay): 300 nM |
| Clc1ccc(C(c2ccc(Cl)cc2)C(Cl)Cl)cc1 [p,p'-DDD] |  |  |  |  |  | IC50 (human CYP2D6 [6]): 59 µM; CYP1A2 Efficacy (in parenthesis) (human CYP1A2 [1]): 6.46 ± 0.74 (-96 ± 1) %; IC50 (human CYP2C9 [2]): 5.55 µM; CYP3A4 IC50 (half-maximal inhibitory concentration) (CYP3A4 [7]): Inactive; CYP2C9 Efficacy (in parenthesis) (human CYP2C9 [8]): 5.55 ± 0.76 (-100 ± 3) %; IC50 (human CYP1A2 [9]): 6.46 µM; Luciferase IC50 (half-maximal inhibitory concentration) [10]: Inactive; IC50 (human CYP2C19 [11]): 120 nM; CYP2D6 Efficacy (in parenthesis) (human CYP2D6 [4]): 59 ± 16.44 (-79 ± 23) %; CYP2C19 Efficacy (in parenthesis) (human CYP2C19 [5]): 0.12 ± 0.06 (-136 ± 7) % |
